Converted amounts (≈) assume the structure as drawn.
Test system: S. aureus ATCC 13709
Assay: MIC, S. aureus ATCC 13709
Type: cell-based
Conditions: Staphylococcus aureus, ATCC13709, S. aureus; Alamar Blue read after overnight incubation at 35° C.; read-out: MIC Sa

Compound	MIC [µg/mL]
CNc1cccc2c1[nH]c1nc(Oc3cnc(C)nc3)cc(N3CC4C(N)C4C3)c12 (centres unmarked) [Compound 3.29]	≤ 0.5
CNc1cccc2c1[nH]c1nc(Oc3ccc(C(=O)O)nc3)cc(N3CC4C(N)C4C3)c12 (centres unmarked) [Compound 3.22]	16 (≈ 37.2 µM)
COc1cccc2c1[nH]c1nc(Sc3cnc4ccc[n+]([O-])c4c3)nc(N3CC[C@@H](N)C3)c12 [Compound 1.78]	≤ 0.5
COc1cccc2c1[nH]c1nc(Sc3cnc4ccc[n+]([O-])c4c3)nc(N3CC(N)C3)c12 [Compound 1.77]	2 (≈ 4.49 µM)
CNc1cccc2c1[nH]c1nc(Sc3cnc4cccnc4c3)nc(N3CCC(C)(N)C3)c12 (centres unmarked) [Compound 1.59]	1 (≈ 2.19 µM)
CNc1cccc2c1[nH]c1nc(Oc3cnc(C)nc3)cc(Oc3cnc(C)nc3)c12 [Compound 3.38]	1 (≈ 2.42 µM)
CNc1cccc2c1[nH]c1nc(Oc3cncnc3)cc(N3C[C@H](NC)C4(CC4)C3)c12 [Compound 3.47]	≤ 0.5

Same assay, conditions: Staphylococcus aureus, ATCC13709, Table 15; R2 is joined to R4; read-out: SA MIC

Compound	MIC [µg/mL]
CNc1cc(F)cc2c1[nH]c1nc3nc(c12)NCCCCNC(=O)CSc1ncc(cn1)O3	≤ 0.5

Same assay, conditions: Staphylococcus aureus, ATCC13709, Table 16; new R4 substituents; read-out: SA MIC

Compound	MIC [µg/mL]
CNc1cc(F)cc2c1[nH]c1nc(Oc3cnc4ccoc4c3)nc(N3CCC(C)(CN)C3)c12 (centres unmarked)	≤ 0.5
CNc1cc(F)cc2c1[nH]c1nc(Oc3cnc(C)nc3)nc(N3CC(N)C(C(=O)OC)C3)c12 (centres unmarked) [drawing 1825]	≤ 0.5
CNc1cc(F)cc2c1[nH]c1nc(Oc3cnc(C)nc3)nc(N3CC(N)C(C(=O)O)C3)c12 (centres unmarked)	> 16

Same assay, conditions: Table 18, Sa

Compound	MIC Sa [µg/mL]
C=Cc1cc(F)cc2c1[nH]c1nc(Oc3cnc(C)nc3)nc(N3C[C@H]4C[C@@H]3C[C@H]4N)c12 [Compound 10.84]	≤ 0.5
CNc1cc(F)cc2c1[nH]c1nc(Oc3cnc4c(Cl)cnn4c3)nc(N3C[C@H]4C[C@@H]3C[C@H]4N)c12 [Compound 10.23]	≤ 0.5
CNc1cc(F)c(F)c2c1[nH]c1nc(Oc3cnc4ccnn4c3)nc(N3C[C@H]4C[C@@H](N)[C@H]4C3)c12 [Compound 10.28]	≤ 0.5
CNc1cc(F)cc2c1[nH]c1nc(Oc3cnc4c(c3)C(=O)OC4(C)C)nc(N3CC4C[C@@H](N)C4C3)c12 (some centres unmarked) [Compound 10.73]	≤ 0.5
CNc1cc(F)c(Cl)c2c1[nH]c1nc(Oc3cnc(C)nc3)nc(N3CC4(CC[C@H]4N)C3)c12 [Compound 10.66]	≤ 0.5
CNc1cc(F)cc2c1[nH]c1nc(Oc3cnc(N(C)N)nc3)nc(N3C[C@H]4C[C@@H]3C[C@H]4N)c12 [Compound 10.98]	≤ 0.5
CNc1cc(F)cc2c1[nH]c1nc(Oc3cnc4ccnn4c3)nc(N3CC[C@]4(C[C@@H]4N)C3)c12 [Compound 10.12]	≤ 0.5
CNc1cc(F)cc2c1[nH]c1nc(Oc3cnc4ccoc4c3)nc(N3C[C@H]4CCN[C@H]4C3)c12 [Compound 10.14]	≤ 0.5
CNc1cc(F)c(F)c2c1[nH]c1nc(Oc3cnc4ccnn4c3)nc(N3C[C@H]4C[C@@H]3C[C@H]4N)c12 [Compound 10.21]	≤ 0.5
CNc1cc(F)cc2c1[nH]c1nc(Oc3cnn4ccnc4c3)nc(N3C[C@H]4C[C@@H]3C[C@H]4N)c12 [Compound 10.62]	≤ 0.5
CNc1cc(F)cc2c1[nH]c1nc(Oc3cnc4c(C)cnn4c3)nc(N3C[C@H]4CCN[C@H]4C3)c12 [Compound 10.24]	≤ 0.5

Test system: E. coli ATCC 25922
Assay: MIC, E. coli ATCC 25922
Type: cell-based
Conditions: Escherichia coli, ATCC25922, E. coli; Alamar Blue read after overnight incubation at 35° C.; read-out: MIC Ec

Compound	MIC [µg/mL]
CNc1cccc2c1[nH]c1nc(Oc3cnc(C)nc3)cc(N3CC4C(N)C4C3)c12 (centres unmarked) [Compound 3.29]	≤ 0.5
CNc1cccc2c1[nH]c1nc(Oc3ccc(C(=O)O)nc3)cc(N3CC4C(N)C4C3)c12 (centres unmarked) [Compound 3.22]	64 (≈ 149 µM)
COc1cccc2c1[nH]c1nc(Sc3cnc4ccc[n+]([O-])c4c3)nc(N3CC[C@@H](N)C3)c12 [Compound 1.78]	64 (≈ 139 µM)
COc1cccc2c1[nH]c1nc(Sc3cnc4ccc[n+]([O-])c4c3)nc(N3CC(N)C3)c12 [Compound 1.77]	> 64
CNc1cccc2c1[nH]c1nc(Sc3cnc4cccnc4c3)nc(N3CCC(C)(N)C3)c12 (centres unmarked) [Compound 1.59]	4 (≈ 8.76 µM)
CNc1cccc2c1[nH]c1nc(Oc3cnc(C)nc3)cc(Oc3cnc(C)nc3)c12 [Compound 3.38]	> 32
CNc1cccc2c1[nH]c1nc(Oc3cncnc3)cc(N3C[C@H](NC)C4(CC4)C3)c12 [Compound 3.47]	≤ 0.5

Same assay, conditions: Escherichia coli, ATCC25922, Table 15; R2 is joined to R4; EC8 not defined; read-out: EC8 MIC

Compound	MIC [µg/mL]
CNc1cc(F)cc2c1[nH]c1nc3nc(c12)NCCCCNC(=O)CSc1ncc(cn1)O3	2 (≈ 4.27 µM)

Same assay, conditions: Escherichia coli, ATCC25922, Table 16; new R4 substituents; EC8 not defined; read-out: EC8 MIC

Compound	MIC [µg/mL]
CNc1cc(F)cc2c1[nH]c1nc(Oc3cnc4ccoc4c3)nc(N3CCC(C)(CN)C3)c12 (centres unmarked)	0.5 (≈ 1.08 µM)
CNc1cc(F)cc2c1[nH]c1nc(Oc3cnc(C)nc3)nc(N3CC(N)C(C(=O)OC)C3)c12 (centres unmarked) [drawing 1825]	1 (≈ 2.14 µM)
CNc1cc(F)cc2c1[nH]c1nc(Oc3cnc(C)nc3)nc(N3CC(N)C(C(=O)O)C3)c12 (centres unmarked)	> 16

Same assay, conditions: Table 18, Ec

Compound	MIC Ec [µg/mL]
C=Cc1cc(F)cc2c1[nH]c1nc(Oc3cnc(C)nc3)nc(N3C[C@H]4C[C@@H]3C[C@H]4N)c12 [Compound 10.84]	≤ 0.5
CNc1cc(F)cc2c1[nH]c1nc(Oc3cnc4c(Cl)cnn4c3)nc(N3C[C@H]4C[C@@H]3C[C@H]4N)c12 [Compound 10.23]	≤ 0.5
CNc1cc(F)c(F)c2c1[nH]c1nc(Oc3cnc4ccnn4c3)nc(N3C[C@H]4C[C@@H](N)[C@H]4C3)c12 [Compound 10.28]	≤ 0.5
CNc1cc(F)cc2c1[nH]c1nc(Oc3cnc4c(c3)C(=O)OC4(C)C)nc(N3CC4C[C@@H](N)C4C3)c12 (some centres unmarked) [Compound 10.73]	≤ 0.5
CNc1cc(F)c(Cl)c2c1[nH]c1nc(Oc3cnc(C)nc3)nc(N3CC4(CC[C@H]4N)C3)c12 [Compound 10.66]	≤ 0.5
CNc1cc(F)cc2c1[nH]c1nc(Oc3cnc(N(C)N)nc3)nc(N3C[C@H]4C[C@@H]3C[C@H]4N)c12 [Compound 10.98]	≤ 0.5
CNc1cc(F)cc2c1[nH]c1nc(Oc3cnc4ccnn4c3)nc(N3CC[C@]4(C[C@@H]4N)C3)c12 [Compound 10.12]	≤ 0.5
CNc1cc(F)cc2c1[nH]c1nc(Oc3cnc4ccoc4c3)nc(N3C[C@H]4CCN[C@H]4C3)c12 [Compound 10.14]	≤ 0.5
CNc1cc(F)c(F)c2c1[nH]c1nc(Oc3cnc4ccnn4c3)nc(N3C[C@H]4C[C@@H]3C[C@H]4N)c12 [Compound 10.21]	≤ 0.5
CNc1cc(F)cc2c1[nH]c1nc(Oc3cnn4ccnc4c3)nc(N3C[C@H]4C[C@@H]3C[C@H]4N)c12 [Compound 10.62]	≤ 0.5
CNc1cc(F)cc2c1[nH]c1nc(Oc3cnc4c(C)cnn4c3)nc(N3C[C@H]4CCN[C@H]4C3)c12 [Compound 10.24]	≤ 0.5
